Literature values as cited in US5730986A (priority 1995, dated 1998).

Columns and labels:
[1] = system: insects
[2] = system: larva of P. xylostella L
[3] = system: malarial parasites
[4] = in vivo
[5] = system: cytochrome P450
[6] = system: pepsinogen; details: rat stomach

C/C=C(\C)C(=O)O[C@H]1C[C@@H](OC(C)=O)[C@@]2(C(=O)OC)CO[C@H]3[C@@H](O)[C@@](C)([C@]45O[C@@]4(C)[C@H]4C[C@@H]5O[C@@H]5OC=C[C@@]54O)[C@H]4[C@]1(CO[C@]4(O)C(=O)OC)[C@@H]32 [Azadirachtin]
pesticide properties [1]: phagorepellent, antifeadent and systemic growth disruptor properties in insects | activity against larva [2]: active against larva of P. xylostella L | inhibition of the development of malarial parasites [3]: inhibitory to the development of malarial parasites

[Mg+2].[OH-].[OH-] [Mg(OH)2]
adverse reactions [4]: loose stools or diarrhea

CN/C(=N/CCSCc1nc[nH]c1C)NC#N [cimetidine]
inhibition of cytochrome P450-catalyzed drug oxidation and hydroxylation of estradiol [5]: inhibits cytochrome P450 -catalyzed drug oxidation and hydroxylation of estradiol

COc1ccc2[nH]c([S+]([O-])Cc3ncc(C)c(OC)c3C)nc2c1 (stereo not drawn) [omeprazole]
secretion, synthesis and gene expression of pepsinogen [6]: reduces the secretion, synthesis and gene expression of pepsinogen
